In patent US20080039442A1, “Compounds With Kv4 Ion Channel Activity” (Devgen NV, priority 2004, published 2008):

Biological target: T1, Kv1.5 potassium channel (Homo sapiens, UniProt P22460)
T1 construct: expressed in transfected cells
Test: Patch clamp, CHO cells stably expressing Kv1.5
Assay type: cell-based
Description: The cDNA coding for Kv1.5 (GenBank Acc. No. M55513) was cloned into the pcDNA6-vector (Invitrogen, Leek, Netherlands). A C-terminal epitope-tag was introduced via PCR. The plasmid was sequenced and subsequently introduced into cells. Clonal cell lines stably expressing the Kv1.5 channel were established. Expression of protein was analysed by means of immunofluorescence using antibodies directed against the epitope-tag. The functional expression of the ion channels was validated electrophysiologically.
The experiments were performed using CHO cells stably expressing the Kv 1.5 potassium channel.
Cells were grown at 37° C. and 5% CO2 in 25 ml flasks (Greiner Bioone, Cellstar, Cat. No. 690160) in 6 ml MEM ALPHA Medium (Sigma, Taufkirchen, Germany, Cat No M8042) supplemented with 10% (v/v) heat inactivated fetal calf serum (Sigma, Cat. No. F9665), 1% (v/v) P/S/G-solution (Sigma, Cat. No. G6784) and G-418 (750 μg per millilitre medium; Sigma, Germany, Cat. No. A1720; 50 mg/ml in water, Sigma, Germany, Cat. No. W3500).
From a HP of −60 mV cells were hyperpolarised for 100 ms to −70 mV, followed by a 500 ms depolarisation to +50 mV. The current amplitude at the end of the test pulse to +50 mV was used for the analysis. Pulse cycling rate was 10 s (0.1 Hz).
The application protocol of test compounds is depicted in FIG. 4. The first 14 stimuli were required to achieve steady state of the current amplitude. Unspecific current reduction was calculated and served for correcting procedures during data analysis. After the 14th stimulus the test compound application was started (indicated by an arrow) via teflon and silicone tubings and was assumed to reach the cell after 6 additional stimuli. The perfusion is adjusted by using a defined drop rate of 10 drops per 10-12 s. Up to three concentrations were applied successively to one cell followed by a wash period of 5 minutes. Total number of stimuli was 140. Effect of the test compound was analysed between stimulus nos. 21 and 50 (5 min., long dashed line) for the first concentration, between stimulus nos. 51 and 80 (5 min., short dashed line) for an additional 5 minutes. If the cell was still stable, a wash was added afterwards. Start of test compound application at the given concentration is indicated by arrows. Number of stimuli of each single episode are shown in the protocol of FIG. 4.
Vehicle (DMSO) control experiments were performed during study period and under identical conditions to verify the stability of current over time and to value cell condition.
The effects of the test compounds were investigated at one concentration (2 or 1 μM) on the Kv1.5-mediated potassium channel.

[1] = concentration cell empty (text: 2 or 1 μM)

T1 sequence (P22460 whole entry): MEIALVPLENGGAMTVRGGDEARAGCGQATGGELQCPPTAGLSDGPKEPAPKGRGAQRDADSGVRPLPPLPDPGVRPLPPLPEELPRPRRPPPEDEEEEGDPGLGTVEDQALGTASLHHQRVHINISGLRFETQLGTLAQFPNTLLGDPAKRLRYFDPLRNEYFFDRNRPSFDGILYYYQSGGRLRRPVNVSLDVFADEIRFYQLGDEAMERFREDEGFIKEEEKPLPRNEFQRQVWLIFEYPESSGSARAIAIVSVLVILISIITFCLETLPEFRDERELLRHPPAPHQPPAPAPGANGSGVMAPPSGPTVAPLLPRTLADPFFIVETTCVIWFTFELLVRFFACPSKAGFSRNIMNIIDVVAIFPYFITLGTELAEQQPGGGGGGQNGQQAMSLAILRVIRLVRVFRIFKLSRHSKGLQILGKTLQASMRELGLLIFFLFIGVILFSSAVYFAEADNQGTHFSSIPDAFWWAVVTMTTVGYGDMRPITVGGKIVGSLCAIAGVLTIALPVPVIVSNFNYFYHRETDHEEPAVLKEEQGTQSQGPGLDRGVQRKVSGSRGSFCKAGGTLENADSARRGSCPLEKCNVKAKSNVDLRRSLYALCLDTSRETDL

Compound	Relative remaining current (mean after 8-10 min) (2 μM, fraction, % in brackets)	Relative remaining current (mean after 5 min) (2 μM, fraction, % in brackets)	Relative remaining current (mean after 8-10 min) [1] [%]
5-chloro-benzofuran-2- carboxylic acid 2,4- dimethoxy- benzylamide [Compound 2]	0.66 (66%)	0.88 (88%)	–
O=C(NCc1ccc(OC(F)(F)F)cc1)c1cc2cc(Cl)ccc2o1 [Compound 89, 5-chloro-benzofuran-2-carboxylic acid 4-trifluoromethoxy-benzylamide]	–	–	82
Cc1c(C(=O)NCc2ccc(F)c(C(F)(F)F)c2)sc2ccc(Cl)cc12 [Compound 107, 5-chloro-3-methyl-benzo[b]thiophene-2-carboxylic acid 4-fluoro-3-trifluoromethyl-benzylamide]	–	–	89
